Where “and” joins values, the source holds several entries; their conditions need not be identical. Equal entries are not always repeated. Toxic doses and inconclusive results are not listed. No stated cut-off is given here; in the data, active means T/C of 150% or more; inactive means T/C below 125%.
System: L1210 leukemia ip in BDF1 mice, survival T/C
Assay: NCI In Vivo Anticancer Drug Screen. Data for tumor model L1210 Leukemia (intraperitoneal) in B6D2F1 (BDF1) mice
Settings: endpoint: mean survival time, higher = longer survival
Procedure, shortened: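 Transplanted-tumor mice were given test agent; controls received vehicle only. Survival readings from the two groups were divided (treated over control).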

[1] = dose: 100.0 mg/kg/injection, schedule: Q01DX009 (ip), vehicle: Klucel (hydroxypropylcellulose) (HPC)
[2] = dose: 100.0 mg/kg/injection, schedule: Q04DX003 (ip), vehicle: Klucel (hydroxypropylcellulose) (HPC)
[3] = dose: 200.0 mg/kg/injection, schedule: Q01DX009 (ip), vehicle: Klucel (hydroxypropylcellulose) (HPC)
[4] = dose: 200.0 mg/kg/injection, schedule: Q04DX003 (ip), vehicle: Klucel (hydroxypropylcellulose) (HPC)
[5] = dose: 400.0 mg/kg/injection, schedule: Q01DX009 (ip), vehicle: Klucel (hydroxypropylcellulose) (HPC)
[6] = dose: 400.0 mg/kg/injection, schedule: Q04DX003 (ip), vehicle: Klucel (hydroxypropylcellulose) (HPC)
[7] = dose: 400.0 mg/kg/injection, schedule: Q01DX001 (ip), vehicle: saline
[8] = dose: 100.0 mg/kg/injection, schedule: Q01DX001 (ip), vehicle: saline
[9] = dose: 200.0 mg/kg/injection, schedule: Q01DX001 (ip), vehicle: saline
[10] = dose: 100.0 mg/kg/injection, schedule: Q04DX003 (ip), vehicle: saline with Tween-80
[11] = dose: 200.0 mg/kg/injection, schedule: Q04DX003 (ip), vehicle: saline with Tween-80

Measured: T/C

C=CCN(CC=C)C(=S)[S-].C=CCN(CC=C)C(=S)[S-].[Zn]
inactive: dose: 1.25 mg/kg/injection, schedule: Q01DX009 (ip), vehicle: saline 101 % of control | dose: 2.5 mg/kg/injection, schedule: Q01DX009 (ip), vehicle: saline 93 % of control | dose: 5.0 mg/kg/injection, schedule: Q01DX009 (ip), vehicle: saline 87 % of control | dose: 5.0 mg/kg/injection, schedule: Q04DX003 (ip), vehicle: saline 90 % of control | dose: 10.0 mg/kg/injection, schedule: Q01DX001 (ip), vehicle: saline 86 % of control | dose: 10.0 mg/kg/injection, schedule: Q04DX003 (ip), vehicle: saline 92 % of control | dose: 20.0 mg/kg/injection, schedule: Q01DX001 (ip), vehicle: saline 95 % of control

CCOC(=O)N1Cc2cc3ccccc3nc2C1CC(=O)O (centres undefined)
inactive: [1] 104 % of control | [2] 105 % of control | [3] 98 % of control | [4] 88 % of control | [5] 102 % of control | [6] 96 % of control

O=C1CNc2ccc(Cl)cc2N1
inactive: dose: 100.0 mg/kg/injection, schedule: Q04DX003 (ip), vehicle: acetone 92 % of control | dose: 200.0 mg/kg/injection, schedule: Q04DX003 (ip), vehicle: acetone 95 % of control | dose: 400.0 mg/kg/injection, schedule: Q04DX003 (ip), vehicle: acetone 88 % of control

Cc1cc(C2CCCCC2)c2ccccc2c1C
inactive: dose: 100.0 mg/kg/injection, schedule: Q01DX009 (ip), vehicle: saline sonified 95 % of control | [2] 103 % of control | dose: 200.0 mg/kg/injection, schedule: Q01DX009 (ip), vehicle: saline sonified 102 % of control | [4] 98 % of control | dose: 400.0 mg/kg/injection, schedule: Q01DX009 (ip), vehicle: saline sonified 99 % of control | [6] 106 % of control

CC(=O)Oc1cccc(OC(=O)Nc2ccc(C)c(NC(=O)Oc3cccc(OC(C)=O)c3)c2)c1
inactive: [1] 93 % of control | [3] 96 % of control | [5] 94 % of control

NC(=S)N/N=C1/C(=O)c2cccc3cccc1c23
inactive: dose: 75.0 mg/kg/injection, schedule: Q01DX001 (ip), vehicle: other 96 % of control

Clc1ccc(OCC2=NCCc3ccccc32)cc1
inactive: dose: 300.0 mg/kg/injection, schedule: Q01DX001 (ip), vehicle: saline 98 % of control | [7] 104 % of control

CC(=O)[S][Pb]([c]1ccccc1)([c]1ccccc1)[c]1ccccc1
inactive: dose: 1.0 mg/kg/injection, schedule: Q01DX009 (ip), vehicle: saline 93 % of control | dose: 2.0 mg/kg/injection, schedule: Q01DX009 (ip), vehicle: saline 93 % of control | dose: 4.0 mg/kg/injection, schedule: Q01DX009 (ip), vehicle: saline 95 % of control and 100 % of control | dose: 5.9 mg/kg/injection, schedule: Q01DX009 (ip), vehicle: saline 86 % of control

O=C(O)c1ccc(NCCO)cc1
inactive: dose: 75.0 mg/kg/injection, schedule: Q01DX009 (ip), vehicle: Klucel (hydroxypropylcellulose) (HPC) 102 % of control | dose: 150.0 mg/kg/injection, schedule: Q01DX009 (ip), vehicle: Klucel (hydroxypropylcellulose) (HPC) 90 % of control | dose: 300.0 mg/kg/injection, schedule: Q01DX009 (ip), vehicle: Klucel (hydroxypropylcellulose) (HPC) 90 % of control

c1nc2c([nH]1)CCCC2
inactive: dose: 25.0 mg/kg/injection, schedule: Q01DX001 (ip), vehicle: carboxymethylcellulose (CMC) 106 % of control | dose: 25.0 mg/kg/injection, schedule: Q01DX009 (ip), vehicle: carboxymethylcellulose (CMC) 103 % of control and 91 % of control | dose: 25.0 mg/kg/injection, schedule: Q04DX002 (ip), vehicle: carboxymethylcellulose (CMC) 94 % of control and 102 % of control | dose: 25.0 mg/kg/injection, schedule: Q04DX003 (ip), vehicle: carboxymethylcellulose (CMC) 95 % of control | dose: 50.0 mg/kg/injection, schedule: Q01DX001 (ip), vehicle: carboxymethylcellulose (CMC) 102 % of control | dose: 50.0 mg/kg/injection, schedule: Q01DX009 (ip), vehicle: carboxymethylcellulose (CMC) 94 % of control and 92 % of control | dose: 50.0 mg/kg/injection, schedule: Q04DX002 (ip), vehicle: carboxymethylcellulose (CMC) 94 % of control and 104 % of control | dose: 50.0 mg/kg/injection, schedule: Q04DX003 (ip), vehicle: carboxymethylcellulose (CMC) 105 % of control | dose: 100.0 mg/kg/injection, schedule: Q04DX003 (ip), vehicle: carboxymethylcellulose (CMC) 92 % of control

O=C1CC2(CCCCC2)C(=O)N1Nc1ccccc1
inactive: [2] 105 % of control | [4] 98 % of control | [6] 102 % of control

Cc1cccc(C)c1C1=CCCCC1
inactive: dose: 50.0 mg/kg/injection, schedule: Q01DX001 (ip), vehicle: saline 108 % of control | [8] 104 % of control | [9] 104 % of control | [7] 110 % of control

COC(=O)C(Cl)C(Cl)c1ccccc1 (centres undefined)
inactive: [10] 97 % of control | [11] 97 % of control | dose: 400.0 mg/kg/injection, schedule: Q04DX003 (ip), vehicle: saline with Tween-80 94 % of control

CCCCNC(=O)Oc1ccc(C(=O)OCCC)cc1
inactive: dose: 50.0 mg/kg/injection, schedule: Q01DX009 (ip), vehicle: saline with Tween-80 102 % of control and 106 % of control | dose: 100.0 mg/kg/injection, schedule: Q01DX009 (ip), vehicle: other 110 % of control and 86 % of control | dose: 100.0 mg/kg/injection, schedule: Q01DX009 (ip), vehicle: saline with Tween-80 103 % of control and 104 % of control | dose: 100.0 mg/kg/injection, schedule: Q04DX002 (ip), vehicle: other 100 % of control and 101 % of control | dose: 200.0 mg/kg/injection, schedule: Q01DX009 (ip), vehicle: other 89 % of control | dose: 200.0 mg/kg/injection, schedule: Q01DX009 (ip), vehicle: saline with Tween-80 96 % of control and 103 % of control | dose: 200.0 mg/kg/injection, schedule: Q04DX002 (ip), vehicle: other 93 % of control and 105 % of control | dose: 400.0 mg/kg/injection, schedule: Q01DX009 (ip), vehicle: other 93 % of control and 90 % of control | dose: 400.0 mg/kg/injection, schedule: Q04DX002 (ip), vehicle: other 96 % of control and 92 % of control

Nc1cccc(C(=O)Nc2cccc(S(=O)(=O)F)c2)c1
inactive: [8] 95 % of control | [9] 98 % of control | [7] 104 % of control

O=C(O)c1cc(=O)c2ccc(Cl)cc2[nH]1
inactive: [8] 90 % of control | dose: 100.0 mg/kg/injection, schedule: Q04DX003 (ip), vehicle: other 88 % of control | [9] 98 % of control | dose: 200.0 mg/kg/injection, schedule: Q04DX003 (ip), vehicle: other 91 % of control | [7] 102 % of control | dose: 400.0 mg/kg/injection, schedule: Q04DX003 (ip), vehicle: other 98 % of control

COc1cc(OC)cc(OC)c1
inactive: [2] 100 % of control | [4] 105 % of control | [6] 97 % of control

Cc1cc2ccccc2cn1
inactive: dose: 50.0 mg/kg/injection, schedule: Q01DX001 (ip), vehicle: other 103 % of control | dose: 100.0 mg/kg/injection, schedule: Q01DX001 (ip), vehicle: other 101 % of control | [10] 96 % of control | dose: 200.0 mg/kg/injection, schedule: Q01DX001 (ip), vehicle: other 95 % of control | [11] 103 % of control

C=CC(=O)NC1CCCCC1
inactive: dose: 25.0 mg/kg/injection, schedule: Q01DX009 (ip), vehicle: Klucel (hydroxypropylcellulose) (HPC) 97 % of control | dose: 50.0 mg/kg/injection, schedule: Q01DX009 (ip), vehicle: Klucel (hydroxypropylcellulose) (HPC) 95 % of control | [1] 102 % of control | [2] 100 % of control | [4] 98 % of control | [6] 100 % of control

[N-]=[N+]=NCC1OC(n2cnc3c(N)ncnc32)C(O)C1O (centres undefined)
inactive: [8] 95 % of control | [9] 103 % of control | [7] 103 % of control
